Measurements from patent US20250108036A1, “COMPOSITIONS FOR REMOVING SENESCENT CELLS AND USES THEREOF” (LIFECEUTIX CO., LTD., priority 2021, published 2025).
Like-named read-outs stand apart in the source and are kept apart here.

Columns and labels:
Type in all cases: cell-based, human
[1] = system: HMGN1; assay: HMGN1 ELISA in culture medium of A549 cancer cells (Example 12, Table 66); settings: Homo sapiens; for activity at 90 µM: test compound 90 μM
[2] = system: HMGN1; assay: HMGN1 ELISA in culture medium of foreskin cells (Examples 10, 11; Tables 62, 63, 64); settings: Homo sapiens; for activity at 90 µM: 90 μM test compound; for activity at 30 µM: read-out: HMGN1
[3] = system: A549; assay: CellTiter-Glo cell viability of senescent A549 cancer cells (Example 12, Table 67); settings: for viability at 1.1 µM / viability at 10 µM / viability at 30 µM / viability at 90 µM: Homo sapiens; for Survival (%): doxorubicin-induced senescent A549 cancer cells
[4] = system: foreskin cells in which senescence was induced by doxorubicin; assay: CellTiter-Glo cell viability of doxorubicin-induced senescent foreskin cells (Examples 1-2, 10, 11, 13; Tables 4, 63, 65); settings: for viability at 1.1 µM / viability at 10 µM / viability at 30 µM / viability at 90 µM / viability at […]: Homo sapiens, 72 h, read-out: Survival (%); for viability at 90 µM: 90 μM test compound
Description: After 3 days, cell viability was measured using CellTiter-Glo Luminescent Cell Viability Assay (Promega) or light microscopy.

[5] = A549, doxorubicin-induced senescent A549 cells, ELISA, DMSO = 100, read-out: HMGN1 (amount of HMGN1 secreted in the cell culture)
[6] = doxorubicin-treated foreskin cells, DMSO = 100
[7] = A549, doxorubicin-induced senescent A549 cancer cells, 1.1 μM test compound, CellTiter-Glo, read-out: Survival (%)
[8] = A549, doxorubicin-induced senescent A549 cancer cells, 10 μM test compound, CellTiter-Glo, read-out: Survival (%)
[9] = A549, doxorubicin-induced senescent A549 cancer cells, 30 μM test compound, CellTiter-Glo, read-out: Survival (%)
[10] = A549, doxorubicin-induced senescent A549 cancer cells, 90 μM test compound, CellTiter-Glo, read-out: Survival (%)
[11] = 1.1 μM test compound, doxorubicin-induced senescent foreskin cells, CellTiter-Glo, 0 μM = 100
[12] = 10 μM test compound, doxorubicin-induced senescent foreskin cells, CellTiter-Glo, 0 μM = 100
[13] = 30 μM test compound, doxorubicin-induced senescent foreskin cells, CellTiter-Glo, 0 μM = 100
[14] = doxorubicin-induced senescent foreskin cells, CellTiter-Glo, 0 μM = 100
[15] = […] test compound, doxorubicin-induced senescent foreskin cells, CellTiter-Glo, 0 μM = 100
[16] = A549, doxorubicin-induced senescent A549 cells, test compound 30 μM, ELISA, DMSO = 100, read-out: HMGN1 (amount of HMGN1 secreted in the cell culture)
[17] = 30 μM test compound, doxorubicin-treated foreskin cells, DMSO = 100

Compound | activity at 90 µM [1, 5] [%] | viability at 1.1 µM [3, 7] [%] | viability at 10 µM [3, 8] [%] | viability at 30 µM [3, 9] [%] | viability at 90 µM [3, 10] [%] | viability at 1.1 µM [4, 11] [%] | viability at 10 µM [4, 12] [%] | viability at 30 µM [4, 13] [%] | viability at […] [4, 15] [%] | activity at 30 µM [1, 16] [%] | activity at 30 µM [2, 17] [%] | further results
CN(C)c1nc(N(C)C)nc(N(C)C)n1 [LX-501, Altretamine, reference compound] | 233 | 99.8 | 103 | 99.5 | 13.1 | 103 | 98.9 | 85.2 | 105 |  |  | activity at 90 µM [2, 6]: 168%; viability at 90 µM [4, 14]: 53.7%
CCCCS[C@@H]1O[C@@H]2O[C@@]3(C)CCC4[C@H](C)CCC([C@H]1C)[C@]42OO3 (stereo partly drawn) [LX-503] |  | 34.4 |  |  |  | 25.1 |  |  |  | 333 | 284 | 
C[C@H]1[C@H](SCc2ccccc2)O[C@@H]2O[C@@]3(C)CC[C@H]4[C@H](C)CC[C@@H]1[C@@]24OO3 [LX-505] |  | 51.1 |  |  |  | 35.2 |  |  | 0.4 | 317 | 299 | 
C[C@@H]1CC[C@H]2[C@@H](C)C(=O)O[C@@H]3O[C@@]4(C)CC[C@@H]1[C@]32OO4 [LX-506, Artemisinin, reference compound] | 169 | 109 | 93.8 | 91.4 | 44.2 | 101 | 91 | 78 | 97.2 |  |  | activity at 90 µM [2, 6]: 169%; viability at 90 µM [4, 14]: 33.2%
C=C1C(=O)O[C@H]2C1CC/C(COC(=O)/C=C/c1c(OC)cccc1OC)=C\CCC1(C)O[C@H]21 (stereo partly drawn) [LX-601] |  | 13.8 |  |  |  | 6.1 |  |  | 3.3 | 318 | 293 | 
O=S(=O)(NC1CCCCC1)c1ccc2c(c1)C(=NO)c1cc(S(=O)(=O)NC3CCCCC3)ccc1-2 [LX-602] |  | 102 | 99 | 41.8 | 2.7 | 79 | 25.9 | 16.1 | 55.2 | 248 | 248 | 
CC1(CCO)CC2(CCC(C(C)(C)C)CC2)OO1 (stereo not drawn) [LX-603] |  | 94.1 | 53.6 | 17.5 |  | 91.7 | 51.6 | 16.8 | 74.1 | 332 | 263 | 
C=C1C(=O)C2CCN1CC2 [LX-702, 2-Methylene-3-quinuclidinone] |  |  |  |  |  |  |  |  |  |  |  | activity at 30 µM ([1]; A549, read-out: HMGN1 (amount of HMGN1 secreted in the cell culture)): 305%; activity at 30 µM [2]: 278%; viability at 1.1 µM ([3]; A549, read-out: Survival (%)): 87.3%; viability at 10 µM ([3]; A549, read-out: Survival (%)): 33.4%; viability at 30 µM ([3]; A549, read-out: Survival (%)): 3%; viability at 1.1 µM [4]: 82.1%; viability at 10 µM [4]: 6.5%
CN(C)C(=S)N/N=C1\CCCc2cccnc21 [LX-802, 2-(6,7-Dihydroquinolin-8(5H)-ylidene)-N^4,N^4-dimethylhydrazine-1-carbothioamide] |  | 62.7 |  |  |  | 42.7 |  |  | 5.7 | 329 | 301 | 
CCn1c2ccccc2c2cc(CNC)ccc21 [LX-901] | 255 | 97.8 | 82.7 | 34.8 | 11.7 | 99.5 | 67.5 | 15.8 | 98.4 |  | 257 | 
CCn1c2ccccc2c2cc(NC(=O)COC(=O)C3CCC(=O)N3)ccc21 (stereo not drawn) [LX-902] | 234 | 94.6 | 88.2 | 62.7 | 25.8 | 97.9 | 72.8 | 23.9 | 91.6 |  | 268 | 
CCn1c2ccc(CNC)cc2c2ccc(-c3cnoc3)cc21 [LX-903] | 239 | 98.9 | 81.6 | 42.7 | 12.3 | 104 | 73.2 | 5.7 | 89.8 |  | 324 | 
CCn1c(C#CCNc2ccccc2)cc2cc(CNC)ccc21 [LX-905] | 217 | 101 | 83.1 | 79.5 | 22.7 | 97.6 | 42.5 | 6.9 | 91.6 |  | 318 | 
Cn1cc(-c2ccccc2)c(-n2cccc2)n1 [LX-907] | 264 | 90.1 | 78.5 | 53.7 | 5.9 | 98.8 | 62.8 | 9.7 | 95.1 |  | 297 | 
CN(C)CCn1cc(-c2ccc(F)cc2)c(-n2cccc2)n1 [LX-909] | 240 |  |  |  |  |  |  |  |  |  | 267 | Survival (%) ([3]; 1.1 μM test compound, CellTiter-Glo): 96.7%; Survival (%) ([3]; 10 μM test compound, CellTiter-Glo): 85.6%; Survival (%) ([3]; 30 μM test compound, CellTiter-Glo): 77.2%; Survival (%) ([3]; 90 μM test compound, CellTiter-Glo): 17.5%; Survival (%) [4, 11]: 100.5%; Survival (%) [4, 12]: 75.1%; Survival (%) [4, 13]: 2.8%; Survival (%) [4, 15]: 85.5%
CCN(CC)C1CCN(Cc2cc(C#CCNc3ccccc3)cc(I)c2O)CC1 [LX-910] | 238 | 95.8 | 76.9 | 47.5 | 2.7 | 95.6 | 68.4 | 1.1 | 84.7 |  | 278 | 
CCN(CC)c1nc2c(C(=O)O)c(O)c(I)c(-n3cccc3)c2s1 [LX-911] | 206 | 98.4 | 82.9 | 78.6 | 27.4 | 94.3 | 43.5 | 7.5 | 91.6 |  | 294 | 
CCNC(=O)c1c(O)c(I)c(-n2cccc2)c2sc(N(CC)CC)nc12 [LX-912] | 244 | 92.4 | 83.9 | 32.4 | 6.7 | 104 | 32.7 | 3.1 | 85.2 |  | 317 | 
COC(=O)/C=C\C(C#N)(C#N)/N=C/c1ccc(C)cc1 [LX-920] | 197 | 98.4 | 95.3 | 93.9 | 25.1 | 100 | 86.2 | 23.8 | 95.4 |  | 278 | 
C=C(CN(C)C)C(=O)c1cc(C)ccc1C [LX-921] | 175 | 99.5 | 91.2 | 90.9 | 39.7 | 99.6 | 89.1 | 15.7 | 89.2 |  | 311 | 
